Results as given in patent US7229825B2, “Double-transfected cell line useful for the identification of transport inhibitors” (Deutches Krebsforschungszentrum Stiftung des Offentlichen …, priority 2001, dated 2007).

Columns and labels:
[1] = target: human MRP2 (Homo sapiens, UniProt Q92887); assay: ATP-dependent transport of [3H]BSP into inside-out membrane vesicles from HEK-MRP2 cells; assay type: biochemical
Method: (§1) Vesicle Transport Studies. Transport of [^3H]BSP into membrane vesicles was measured by the rapid filtration method (Keppler et al. 1998). Briefly, membrane vesicles (30 μg protein) were incubated in the presence of 4 mM ATP, 10 mM creatine phosphate, 100 μg/ml creatine kinase, and [^3H]BSP in an incubation buffer (250 mM sucrose, 10 mM Tris/HCl, pH 7.4) in a final volume of 55 μl at 37° C. Aliquots (15 μl) were taken at the indicated time points, diluted in 1 ml ice-cold incubation buffer, and immediately filtered through presoaked nitrocellulose membrane (0.2 μm pore size, Schleicher & Schüll, Dassel, Germany). Filters were rinsed twice with 5 ml of incubation buffer, dissolved in liquid scintillation fluid, and counted for radioactivity. In control experiments, ATP was replaced by an equal concentration of 5′-AMP. ATP-dependent transport was calculated by subtracting values obtained in the presence of 5′-AMP from those obtained in the presence of ATP.

[2] = test system: OATP2 and MRP2 (MDCK-OATP2/MRP2 cells); assay: Transcellular transport of BSP by MDCK-OATP2/MRP2 cells; assay type: cell-based, human; details: 1 μM [3H]BSP basolateral, 30 min, 37° C.; MDCK-OATP2/MRP2 vs MDCK-Co and MDCK-OATP2
Excerpt: FIG. 13: Transcellular transport of BSP by MDCK-OATP2/MRP2 cells.
Proteins were separated by SDS-PAGE (7.5% gels).

[3] = test system: MDCK-MRP2/OATP8 cells; assay: Radio-HPLC analysis of [3H]BSP after transport by MDCK-MRP2/OATP8 cells; assay type: in vitro ADME; details: 1 μM [3H]BSP basolateral, 30 min, acivicin 5 mM
Method: HPLC Analysis of [^3H]BSP. MDCK-MRP2/OATP8 cells grown on Transwell membrane inserts were incubated with 1 μM [^3H]BSP in the basolateral compartment for 30 min at 37° C. after a pre-incubation with 5 mM acivicin, an inhibitor of g-glutamyltransferase (Allen et al. 1980), in both compartments for 30 min at 37° C. The radioactivity in the apical compartment and in the cell lysate was analyzed by HPLC. Reversed-phase HPLC analyses on a C18 Hypersil column ([…] particles; Shandon, Runcorn, UK) were performed as described (Cui et al. 2001) using a linear gradient elution from 100% buffer A (45% methanol/55% water containing […] tetrabutylammonium hydroxide at pH 6.0) to 100% buffer B (90% methanol/10% water containing 2 mM tetrabutylammonium hydroxide at pH 6.0) at a flow rate of 1 ml/min. [^3H]BSP-SG was synthesized for the HPLC analyses by incubating 1 mM GSH, 0.4 mM [^3H]BSP (1 μCi), and 5 mM acivicin with 350 μl mouse liver cytosol in a final volume of 500 μl for 1 h at 37° C. After deproteinization with 3 volume of methanol 200 μl supernatant was analyzed by HPLC as described above.

[4] = test system: human OATP8 and MRP2 (MDCK-MRP2/OATP8 cells)
Method: For transport assays MDCKII cells were grown on Transwell membrane inserts (24 mm diameter, 0.4 μm pore size, Corning Costar) at confluency for 3 days and induced with 10 mM sodium butyrate for 24 h. […] After the time periods indicated, the radioactivity in the opposite compartments was measured. The intracellular accumulation of the radioactivity was determined by lysing the cells with 2 ml 0.2% SDS in water and measuring the radioactivity in cell lysates.
To study the transcellular transport of Fluo-3, cells were incubated with 2 μM Fluo-3 in the basolateral compartments at 37° C. for 30 min.
To study the transcellular transport of rifampicin, cells were incubated with 50 μM rifampicin in the basolateral compartments at 37° C. for 30 min. To determine the concentration of rifampicin in the apical compartments its absorption at 475 nm was measured with a spectrophotometer (Ultrospec III, Amersham-Pharmacia, Freiburg, Germany). A calibration curve for the calculation of the concentrations of rifampicin was determined in the concentration range between 1 and 50 μM.

[5] = target: T1, human OATP8 (MDCK-OATP8 cells) (Homo sapiens, UniProt Q9NPD5); assay: [3H]BSP accumulation and efflux in MDCK-OATP8 cells on Transwell membrane inserts; assay type: cell-based; set-up: expressed in transfected cells
T1 sequence (Q9NPD5 1-702): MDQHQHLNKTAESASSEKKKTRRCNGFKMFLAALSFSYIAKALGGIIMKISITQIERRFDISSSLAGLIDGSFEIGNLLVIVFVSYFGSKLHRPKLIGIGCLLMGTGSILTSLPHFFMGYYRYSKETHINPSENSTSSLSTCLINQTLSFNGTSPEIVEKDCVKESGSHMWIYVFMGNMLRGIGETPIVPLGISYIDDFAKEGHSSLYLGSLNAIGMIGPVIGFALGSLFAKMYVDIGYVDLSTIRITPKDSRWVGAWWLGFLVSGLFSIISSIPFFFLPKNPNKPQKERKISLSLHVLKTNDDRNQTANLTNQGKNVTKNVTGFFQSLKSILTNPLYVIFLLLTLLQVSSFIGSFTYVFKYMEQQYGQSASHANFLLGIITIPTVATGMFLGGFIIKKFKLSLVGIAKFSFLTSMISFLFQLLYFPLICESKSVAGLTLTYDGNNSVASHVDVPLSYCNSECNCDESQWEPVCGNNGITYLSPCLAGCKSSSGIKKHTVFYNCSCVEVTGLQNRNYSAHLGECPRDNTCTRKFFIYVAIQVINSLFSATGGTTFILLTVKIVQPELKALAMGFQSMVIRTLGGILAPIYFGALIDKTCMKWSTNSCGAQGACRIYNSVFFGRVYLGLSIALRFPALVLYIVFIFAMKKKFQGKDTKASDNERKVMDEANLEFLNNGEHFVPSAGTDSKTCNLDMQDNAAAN

[6] = test system: MDCKII cell lines; assay: Transcellular leakage of [14C]inulin carboxylic acid across MDCKII cell monolayers; assay type: cell-based, canine; details: 50 μM basolateral, 30 min, all four MDCKII cell lines
Method: The transcellular leakage was determined by incubating cells with 50 μM [^14C]inulin carboxylic acid in the basolateral compartments for 30 min and measuring the radioactivity in the apical compartments. For all four MDCKII cell lines used in this work the transcellular leakage was lower than 1%.

[7] = substrate: O=C1OC(c2ccc(O)c(S(=O)(=O)O)c2)(c2ccc(O)c(S(=O)(=O)O)c2)c2c(Br)c(Br)c(Br)c(Br)c21; assay: ATP-dependent transport of [3H]BSP into inside-out membrane vesicles from HEK-MRP2 cells; assay type: biochemical, human; details: other: BSP concentrations between 1 and 10 μM; pH 7.4; 37.0 °C
Method: as §1

O=C1OC(c2ccc(O)c(S(=O)(=O)O)c2)(c2ccc(O)c(S(=O)(=O)O)c2)c2c(Br)c(Br)c(Br)c(Br)c21 [BSP, sulfobromophthalein]
transport of [3H]BSP into membrane vesicles from HEK-MRP2 cells ([1]; 1 μM, ATP vs 5'-AMP): transported ATP-dependently | accumulation of [3H]BSP in membrane vesicles ([1]; HEK-MRP2 vs control-transfected HEK-Co vesicles): significantly higher | rate of transcellular transport of BSP [2]: significantly higher | radioactivity in the apical compartment and in the cells with the retention time of unconjugated [3H]BSP [3]: > 98% | intracellular [3H]BSP level remaining after 30 min efflux [4]: significantly lower | transcellular transport (basolateral to apical) [4]: marked transcellular transport | rate of transfer from the basolateral to the apical compartment, double-transfected versus single-transfected cells ([4]; human, pH 7.3): at least 6 times | intracellular accumulation of [3H]BSP ([5]; 1 μM basolateral, MDCK-OATP8 or MDCK-MRP2/OATP8 vs MDCK-Co and MDCK-MRP2 cells): significantly higher | efflux of [3H]BSP, route of release ([5]; MDCK-OATP8 cells loaded with 1 μM for 30 min, then 30 min efflux): mainly across the basolateral membrane

Inulin carboxylic acid [[^14C]Inulin carboxylic acid]
transcellular leakage [6]: lower than 1%

B1: human MRP2 (Homo sapiens) (protein)
chain: MLEKFCNSTFWNSSFLDSPEADLPLCFEQTVLVWIPLGYLWLLAPWQLLHVYKSRTKRSSTTKLYLAKQVFVGFLLILAAIELALVLTEDSGQATVPAVRYTNPSLYLGTWLLVLLIQYSRQWCVQKNSWFLSLFWILSILCGTFQFQTLIRTLLQGDNSNLAYSCLFFISYGFQILILIFSAFSENNESSNNPSSIASFLSSITYSWYDSIILKGYKRPLTLEDVWEVDEEMKTKTLVSKFETHMKRELQKARRALQRRQEKSSQQNSGARLPGLNKNQSQSQDALVLEDVEKKKKKSGTKKDVPKSWLMKALFKTFYMVLLKSFLLKLVNDIFTFVSPQLLKLLISFASDRDTYLWIGYLCAILLFTAALIQSFCLQCYFQLCFKLGVKVRTAIMASVYKKALTLSNLARKEYTVGETVNLMSVDAQKLMDVTNFMHMLWSSVLQIVLSIFFLWRELGPSVLAGVGVMVLVIPINAILSTKSKTIQVKNMKNKDKRLKIMNEILSGIKILKYFAWEPSFRDQVQNLRKKELKNLLAFSQLQCVVIFVFQLTPVLVSVVTFSVYVLVDSNNILDAQKAFTSITLFNILRFPLSMLPMMISSMLQASVSTERLEKYLGGDDLDTSAIRHDCNFDKAMQFSEASFTWEHDSEATVRDVNLDIMAGQLVAVIGPVGSGKSSLISAMLGEMENVHGHITIKGTTAYVPQQSWIQNGTIKDNILFGTEFNEKRYQQVLEACALLPDLEMLPGGDLAEIGEKGINLSGGQKQRISLARATYQNLDIYLLDDPLSAVDAHVGKHIFNKVLGPNGLLKGKTRLLVTHSMHFLPQVDEIVVLGNGTIVEKGSYSALLAKKGEFAKNLKTFLRHTGPEEEATVHDGSEEEDDDYGLISSVEEIPEDAASITMRRENSFRRTLSRSSRSNGRHLKSLRNSLKTRNVNSLKEDEELVKGQKLIKKEFIETGKVKFSIYLEYLQAIGLFSIFFIILAFVMNSVAFIGSNLWLSAWTSDSKIFNSTDYPASQRDMRVGVYGALGLAQGIFVFIAHFWSAFGFVHASNILHKQLLNNILRAPMRFFDTTPTGRIVNRFAGDISTVDDTLPQSLRSWITCFLGIISTLVMICMATPVFTIIVIPLGIIYVSVQMFYVSTSRQLRRLDSVTRSPIYSHFSETVSGLPVIRAFEHQQRFLKHNEVRIDTNQKCVFSWITSNRWLAIRLELVGNLTVFFSALMMVIYRDTLSGDTVGFVLSNALNITQTLNWLVRMTSEIETNIVAVERITEYTKVENEAPWVTDKRPPPDWPSKGKIQFNNYQVRYRPELDLVLRGITCDIGSMEKIGVVGRTGAGKSSLTNCLFRILEAAGGQIIIDGVDIASIGLHDLREKLTIIPQDPILFSGSLRMNLDPFNNYSDEEIWKALELAHLKSFVASLQLGLSHEVTEAGGNLSIGQRQLLCLGRALLRKSKILVLDEATAAVDLETDNLIQTTIQNEFAHCTVITIAHRLHTIMDSDKVMVLDNGKIIECGSPEELLQIPGPFYFMAKEAGIENVNSTKF
notes: expressed in transfected cells
Km [7]: 12 µM
